Assay results from patent US8778402B2, “Dry powder formulation comprising a corticosteroid and a beta-adrenergic for administration by inhalation” (Chiesi Farmaceutici S.p.A., priority 2012, dated 2014).

Experiment: Particle size distribution of micronised BDP by laser diffraction (Malvern)
Type: physicochemical
Conditions: micronised beclometasone dipropionate; volume diameter of 10% of particles
Protocol: The size of the particles of the active is determined by measuring the characteristic equivalent sphere diameter, known as volume diameter, by laser diffraction. In the reported examples, the volume diameter has been determined using a Malvern apparatus. However, other equivalent apparatus may be used by the skilled person in the art.
The particle size was determined by laser diffraction using a Malvern apparatus. The parameter taken into consideration was the VD in microns of 10%, 50% and 90% of the particles expressed as d(v,0.1), d(v, 0.5) and d(v, 0.9), respectively, which correspond to the mass diameter assuming a size independent density for the particles. The span [d(v,0.9)−d(v,0.1)]/d(v,0.5) is also reported. The Specific Surface Area (SSA) was determined by BET nitrogen adsorption using a Coulter SA3100 apparatus as a mean of three determinations.

Row | Compound | d (v, 0.1) [μm]
1 | CCC(=O)OCC(=O)[C@@]1(OC(=O)CC)[C@@H](C)C[C@H]2[C@@H]3CCC4=CC(=O)C=C[C@]4(C)[C@@]3(Cl)[C@@H](O)C[C@@]21C [Batch 3, beclometasone dipropionate] | 0.95
2 | CCC(=O)OCC(=O)[C@@]1(OC(=O)CC)[C@@H](C)C[C@H]2[C@@H]3CCC4=CC(=O)C=C[C@]4(C)[C@@]3(Cl)[C@@H](O)C[C@@]21C [Batch 2, beclometasone dipropionate] | 0.96
3 | CCC(=O)OCC(=O)[C@@]1(OC(=O)CC)[C@@H](C)C[C@H]2[C@@H]3CCC4=CC(=O)C=C[C@]4(C)[C@@]3(Cl)[C@@H](O)C[C@@]21C [Batch 1, beclometasone dipropionate] | 0.86
4 | CCC(=O)OCC(=O)[C@@]1(OC(=O)CC)[C@@H](C)C[C@H]2[C@@H]3CCC4=CC(=O)C=C[C@]4(C)[C@@]3(Cl)[C@@H](O)C[C@@]21C [Batch 4, beclometasone dipropionate] | 0.91
